In assay [1] the target is RAC-alpha serine/threonine-protein kinase (Homo sapiens, UniProt P31749). Kind of assay: PKB In Vitro Kinase Assay. Particulars: pH 7.5; 22 °C. How it is done: An ELISA-based assay has been developed for the serine/threonine kinase, PKB-alpha. The assay utilizes an N-terminally biotinylated substrate peptide. When this substrate is phosphorylated by the kinase, the product is recognized by a substrate/sequence-specific antibody, which binds to particular phosphorylated serine residues. […] Calculation of IC50 values was performed with ActivityBase.

Assay [2] deals with cAMP-dependent protein kinase catalytic subunit alpha (Bos taurus, UniProt P00517). Briefly: Fluorescence Polarization-based Assay. Particulars: pH 7.2; 22 °C. How it is done:
In this assay, a fluorescent phosphopeptide tracer and the nonfluorescent phosphopeptides generated during a PKA reaction compete for binding to an antiphosphoserine antibody. In a reaction mixture containing phosphopeptide product, the fluorescent tracer is displaced from the antibody and the emission signal becomes depolarized. Enzymatic activity was measured by detection of fluorescence polarity in a Victor 2 reader (Wallac, Finland). […] Calculation of IC50 values was performed with ActivityBase.

Each structure is given as a SMILES string. Where a name gives a salt, the structure may show the parent alone.

Sequence of RAC-alpha serine/threonine-protein kinase (P31749 whole entry): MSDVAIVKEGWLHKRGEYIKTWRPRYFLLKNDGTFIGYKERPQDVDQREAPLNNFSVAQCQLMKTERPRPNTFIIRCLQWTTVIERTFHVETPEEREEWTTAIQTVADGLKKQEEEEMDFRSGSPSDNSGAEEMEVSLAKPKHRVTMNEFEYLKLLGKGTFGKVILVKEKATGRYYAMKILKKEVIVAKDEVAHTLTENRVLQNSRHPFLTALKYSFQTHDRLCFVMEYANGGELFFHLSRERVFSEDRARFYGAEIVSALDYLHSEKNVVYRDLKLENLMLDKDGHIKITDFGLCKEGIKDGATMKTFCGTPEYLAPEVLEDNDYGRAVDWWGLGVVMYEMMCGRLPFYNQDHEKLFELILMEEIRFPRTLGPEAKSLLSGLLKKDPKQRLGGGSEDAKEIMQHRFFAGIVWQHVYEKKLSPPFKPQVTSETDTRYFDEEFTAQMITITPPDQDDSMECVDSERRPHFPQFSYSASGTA

With `COc1ccc(O)c(C(=O)c2ccc(CO[C@@H]3CCCNC[C@H]3NC(=O)c3ccncc3)cc2)c1F` [N-((3R,4R)-4-{[4-(2-fluoro-6-hydroxy-3-methoxybenzoyl)benzyl]oxy}azepan-3-yl)isonicotinamide dihydrochloride], the IC50 in assay [1] was 0.355 µM.

Regarding `COc1ccc(O)c(C(=O)c2ccc(NC[C@@H]3CCCNC[C@H]3NC(=O)c3ccncc3)cc2)c1F` [N-[(3S,4S)-4-[({4-[(2-fluoro-6-hydroxy-3-methoxyphenyl)carbonyl]phenyl}amino)methyl]azepan-3-yl]pyridine-4-carboxamide trihydrochloride], the half-maximal inhibitory concentration (IC50) in assay [1] stood at 25 µM; in assay [2], 45 µM.

For the origin of these results see BindingDB's records for doi:10.1021/jm0310479 (Roche Diagnostics, 2004).
